The subject of assay [1] is diabetic rats. As to the kind of experiment: Assay for inhibitory effects on blood glucose level increase in rats (liquid meal tolerance test). It is filed as in vivo, rat. To be noted: test compound 1 mg/kg orally, liquid meal 17.25 kcal/kg, mean±S.E.; for Plasma glucose concentration 0.5 h: 0.5 hour after the drug administration; for Plasma glucose concentration 1 h: 1 hour after the drug administration. The protocol:
Assay for Inhibitory Effects on Blood Glucose Level Increase in Rats
1) Preparation of Diabetic Rat Model
Male wistar rats (Japan Charles River), aged 8 weeks old, were injected nicotinamide (230 mg/kg) intraperitoneally. Fifteen minutes after injection, they were injected streptozotocin (85 mg/kg) intravenously from tail vain under anesthesia with ether. After a week, rats were fasted overnight and then glucose tolerance test (2 g/kg) was done.
2) Liquid Meal Tolerance Test
After overnight fasted, the diabetic rats were orally administered a test compound (1 mg/kg), which was dissolved in distilled water or 0.5% aqueous carboxymethylcellulose solution, in the drug-treating group, or distilled water or 0.5% aqueous carboxymethylcellulose solution alone in a control group. Immediately after the compound administration, 17.25 kcal/kg of liquid meal (No. 038, Control diet, assorted with dextrin and maltose; Oriental Yeast Co., Ltd.) was loaded orally. The blood was collected from tail artery immediately before and after administration with the time course, and treated with heparin immediately. The blood was centrifuged, and the plasma was collected to quantify the plasma glucose concentration by glucose oxidase method. The values in the Table are presented as the mean±S.E.

Assay [2] deals with T1, human SGLT1 (Homo sapiens, UniProt P13866).
T1 construct: expressed in transfected cells
T1 sequence (P13866 1-664): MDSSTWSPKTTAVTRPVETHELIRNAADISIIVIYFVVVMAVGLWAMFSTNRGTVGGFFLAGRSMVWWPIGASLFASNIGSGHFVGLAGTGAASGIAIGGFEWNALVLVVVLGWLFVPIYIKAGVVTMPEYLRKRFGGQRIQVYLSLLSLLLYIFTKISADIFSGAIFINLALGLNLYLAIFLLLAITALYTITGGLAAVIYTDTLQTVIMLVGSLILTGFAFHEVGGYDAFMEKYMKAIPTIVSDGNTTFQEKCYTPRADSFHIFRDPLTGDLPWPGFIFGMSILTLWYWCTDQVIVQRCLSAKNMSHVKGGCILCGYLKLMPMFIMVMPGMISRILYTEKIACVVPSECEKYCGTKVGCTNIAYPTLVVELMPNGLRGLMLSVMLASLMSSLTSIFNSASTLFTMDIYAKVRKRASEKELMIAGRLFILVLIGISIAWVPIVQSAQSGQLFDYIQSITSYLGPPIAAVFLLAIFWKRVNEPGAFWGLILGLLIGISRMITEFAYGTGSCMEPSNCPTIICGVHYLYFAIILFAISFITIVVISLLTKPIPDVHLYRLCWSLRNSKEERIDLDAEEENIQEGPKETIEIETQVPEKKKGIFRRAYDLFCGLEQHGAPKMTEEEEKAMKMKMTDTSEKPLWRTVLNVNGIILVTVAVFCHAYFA
As to the kind of experiment: Assay for inhibitory effects on human SGLT1 activity (uptake of methyl-α-D-glucopyranoside in CS1-5-11D cells). Conditions: CHO-K1 cells stably expressing human SGLT1 (CS1-5-11D); 1 mM α-MG uptake, 37° C., 1 hour. It counts as cell-based. The protocol:
Assay for Inhibitory Effects on Human SGLT1 Activity
1) Cloning and Construction of the Vector Expressing Human SGLT1
The cDNA library was prepared for PCR amplification by reverse transcription from total RNA deprived from human small intestine (Ori gene) using oligo-dT as a primer.
2) Establishment of Cell Line Stably Expressing Human SGLT1
The expression vector of human SGLT1 was digested by Sca I into a linear DNA. The linear DNA was transfected into CHO-K1 cells by means of lipofection (Effectene Transfection Reagent: QIAGEN). Neomycin resistant cell lines were selected by culture in the medium containing G418 (1 mg/mL, LIFE TECHNOLOGIES), and then the activity against the uptake of methyl-α-D-glucopyranoside was measured by the method described below. […] CS1-5-11D cells were cultured in the presence of G418 at 200 μg/mL.
3) Measurement of the Inhibitory Activity Against the Uptake of Methyl-α-D-glucopyranoside (α-MG)
CS1-5-11D cells were seeded into a 96-well culture plate at a density of 3×10^4 cells/well and cultured for 2 days, and were used in the uptake assay. A mixture of non-labeled (Sigma) and ^14C-labeled α-MG (Amersham Pharmcia Biotec) was added to the uptake buffer (pH 7.4: containing 140 mM sodium chloride, 2 mM potassium chloride, 1 mM calcium chloride, 1 mM magnesium chloride, 10 mM 2-[4-(2-hydroxyethyl)-1-piperazinyl]ethane sulfonic acid, and 5 mM tris(hydroxymethyl)aminomethane) at the final concentration of 1 mM. A test compound was dissolved in dimethyl sulfoxide, and then appropriately diluted with distilled water. The test compound solution was added to the uptake buffer containing 1 mM α-MG, and designated as a measurement buffer. For the control group, the measurement buffer without any test compound was prepared. For measuring the basal uptake, a basal uptake measurement buffer which contains 140 mM chorine chloride instead of sodium chloride was prepared. After removing the culture medium of CS1-5-11D cells, 180 μL of the pre-treatment buffer (the basal uptake buffer without α-MG) was added to each well and incubated at 37° C. for 10 minutes. After repeating the same treatment, the pre-treatment buffer was removed. To each well was added 75 μL of the measurement buffer or the basal uptake buffer was added and incubated at 37° C. for 1 hour. After removing the measurement buffer, cells were washed twice with 180 μL per well of the washing buffer (the basal uptake buffer containing 10 mM non-labeled α-MG). The cells were solubilized by 75 μL per well of 0.2 mol/L sodium hydroxide. The cell lysates were transferred into PicoPlates (Packard), and then added 150 μL of MicroScint-40 (Packard) and mixed. Radioactivity was measured by means of micro-scintillation counter TopCount (Packard). One hundred was set to the difference between the uptake in the control group and the basal uptake, and the uptake of methyl α-D-glucopyranoside a teach drug concentration were calculated.

The results in this text go back to patent US8324176B2, “Pyrazole derivatives, medicinal composition containing the same, medicinal use thereof, and intermediate for production thereof” (Kissei Pharmaceutical Co., Ltd., priority 2002, dated 2012).

Usually IC50 stands for the concentration that inhibits the measured activity by half.

Take `Cc1cc(OCCCNC(=N)N)ccc1Cc1c(O[C@@H]2O[C@H](CO)[C@@H](O)[C@H](O)[C@H]2O)n[nH]c1C(C)C` [Example 55, 3-(β-D-Glucopyranosyloxy)-4-{[4-(3-guanidinopropoxy)-2-methylphenyl]methyl}-5-isopropyl-1H-pyrazole]: in assay [1], the “Plasma glucose concentration 0.5 h” value came to 200 ± 16 mg/dL and the “Plasma glucose concentration 1 h” value is given as 211 ± 18 mg/dL. The compound further displayed an IC50 in assay [2] of 98 nM.
For `CC(C)c1[nH]nc(O[C@@H]2O[C@H](CO)[C@@H](O)[C@H](O)[C@H]2O)c1Cc1ccc(OCCCNC(=O)NC(C)(CO)CO)cc1` [Example 21, 3-(β-D-Glucopyranosyloxy)-4-{[4-(3-{3-[2-hydroxy-1-(hydroxymethyl)-1-(methyl)ethyl]ureido}propoxy)phenyl]-methyl}-5-isopropyl-1H-pyrazole] the same measures were 211 ± 22 mg/dL, 242 ± 35 mg/dL and 127 nM.
On the same counts, the results for `Cc1cc(OCCCNCC(N)=O)ccc1Cc1c(O[C@@H]2O[C@H](CO)[C@@H](O)[C@H](O)[C@H]2O)n[nH]c1C(C)C` [Example 45] are 169 ± 18 mg/dL, 182 ± 27 mg/dL and 68 nM.
As to `CC(C)c1[nH]nc(O[C@@H]2O[C@H](CO)[C@@H](O)[C@H](O)[C@H]2O)c1Cc1ccc(OCCCNCc2cccnc2)cc1` [Example 64, 3-(β-D-Glucopyranosyloxy)-5-isopropyl-4-({4-[3-(3-pyridyl-methylamino)propoxy]phenyl}methyl)-1H-pyrazole], in assay [1], the “Plasma glucose concentration 0.5 h” value is recorded as 141 ± 12 mg/dL and the “Plasma glucose concentration 1 h” value was determined as 148 ± 22 mg/dL. For the same compound, the “Plasma glucose concentration 0 h” value in assay [1] (pretreatment (0 h)) came to 116 ± 2 mg/dL. The compound also returned a 50% inhibitory concentration (IC50) in assay [2] of 178 nM.
For the compound `CC(C)c1[nH]nc(O[C@@H]2O[C@H](CO)[C@@H](O)[C@H](O)[C@H]2O)c1Cc1ccc(OCCCNS(C)(=O)=O)cc1` [Example 10, 3-(β-D-Glucopyranosyloxy)-5-isopropyl-4-({4-[3-(methanesulfonylamino)propoxy]phenyl}methyl)-1H-pyrazole], in assay [1], the “Plasma glucose concentration 0.5 h” value was 145 ± 5 mg/dL and the “Plasma glucose concentration 1 h” value was 164 ± 6 mg/dL. In addition, half-maximal inhibition in assay [2] (IC50) required 169 nM.
For `CC(C)c1[nH]nc(O[C@@H]2O[C@H](CO)[C@@H](O)[C@H](O)[C@H]2O)c1Cc1ccc(OCCCNC(=O)CN)cc1` [Example 13, 4-({4-[3-(2-Aminoacetylamino)propoxy]phenyl}methyl)-3-(β-D-glucopyranosyloxy)-5-isopropyl-1H-pyrazole] the same measures were 127 ± 7 mg/dL, 135 ± 7 mg/dL and 267 nM.
In the case of `Cc1cc(OCCCNC(CO)CO)ccc1Cc1c(O[C@@H]2O[C@H](CO)[C@@H](O)[C@H](O)[C@H]2O)n[nH]c1C(C)C` [Example 59, 3-(β-D-Glucopyranosyloxy)-4-[(4-(3-[2-hydroxy-1-(hydroxymethyl)ethylamino]propoxy)-2-methylphenyl)methyl]-5-isopropyl-1H-pyrazole], in assay [1], the “Plasma glucose concentration 0.5 h” value was found to be 143 ± 4 mg/dL and the “Plasma glucose concentration 1 h” value is 154 ± 13 mg/dL. The compound also had a half-inhibitory concentration (IC50) in assay [2] of 71 nM.
For `Cc1cc(OCCNC(=N)N)ccc1Cc1c(O[C@@H]2O[C@H](CO)[C@@H](O)[C@H](O)[C@H]2O)n[nH]c1C(C)C` [Example 56, 3-(β-D-Glucopyranosyloxy)-4-{[4-(2-guanidinoethoxy)-2-methylphenyl]methyl}-5-isopropyl-1H-pyrazole] the same measures were 146 ± 7 mg/dL, 165 ± 17 mg/dL and 38 nM.
On the same counts, the results for `CC(C)c1[nH]nc(O[C@@H]2O[C@H](CO)[C@@H](O)[C@H](O)[C@H]2O)c1Cc1ccc(OCCCN)cc1` [Example 6, 4-{[4-(3-Aminopropoxy)phenyl]methyl}-3-(β-D-glucopyranosyloxy)-5-isopropyl-1H-pyrazole] are 126 ± 12 mg/dL, 140 ± 13 mg/dL and 304 nM.
